Read-outs that look alike come from different tables or passages of the source. Peptide text beside a SMILES is read from it.
Tests used:
human erythrocytes = assay: Hemolysis assay; format: cell-based; conditions: for Eryhtr. HC50 /µM: 1 h
How it was run: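 Washed human erythrocytes (5% v/v in PBS) were mixed with peptide plated as a 200–6.25 μM series, in triplicate, for 1 h at 37 °C. Released haemoglobin in the supernatant was read at 540 nm, scaled to 0.1% Triton X-100 (100%) and PBS (0%). HC50 came from a 3-parameter log-logistic fit.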

TK-10 = assay: NCI-60 screening; format: cell-based, human; conditions: TK-10 (Renal); log GI50; 48 h, sulforhodamine B, 10^-4 to 10^-8 M
Description: (§1) NCI-60 screening procedure
(§2) The NCI-60 screening procedure was performed by the Developmental Therapeutics Program of the National Cancer Institute. The procedure was performed as previously described24 in 96-well microtiter plates. Each peptide was tested in a 5-concentration assay, starting at 10^-4 M and diluting 10-fold to the lowest 10^-8 M concentration. The peptides were incubated for 48 h and the cell concentration was assayed by using the sulforhodamine B assay25 and optical density measurements. The growth inhibition (GI50) value24, measures the growth inhibitory power of the drug agent. The GI50 value is the concentration of the test drug for which the condition in Eq. S1 is met, where T is the optical density of the test well after a 48-h exposure to the peptide, T0 the optical density before applying the peptide drug and C the control optical density of a well where no peptide was applied.

KM12 = assay: NCI-60 screening; format: cell-based, human; conditions: KM12 (Colon); log GI50; 48 h, sulforhodamine B, 10^-4 to 10^-8 M
Description: as §1, §2

MDA-MB-435 = assay: NCI-60 screening; format: cell-based, human; conditions: MDA-MB-435 (Melanoma); log GI50; 48 h, sulforhodamine B, 10^-4 to 10^-8 M
Description: as §1, §2

BT-549 = assay: NCI-60 screening; format: cell-based, human; conditions: BT-549 (Breast); log GI50; 48 h, sulforhodamine B, 10^-4 to 10^-8 M
Description: as §1, §2

SN12C = assay: NCI-60 screening; format: cell-based, human; conditions: SN12C (Renal); log GI50; 48 h, sulforhodamine B, 10^-4 to 10^-8 M
Description: as §1, §2

MCF7 = assay: NCI-60 screening; format: cell-based, human; conditions: MCF7 (Breast); log GI50; 48 h, sulforhodamine B, 10^-4 to 10^-8 M
Description: as §1, §2

NCI-H23 = assay: NCI-60 screening; format: cell-based, human; conditions: NCI-H23 (Lung); log GI50; 48 h, sulforhodamine B, 10^-4 to 10^-8 M
Description: as §1, §2

[1] = tested on: A549 lung adenocarcinoma cell line; assay: Cell viability assay (MTT); format: cell-based, human; conditions: MTT
How it was run: (§3)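 Viability by MTT: 10^4 cells/well exposed 24 h to 2-fold peptide dilutions from 100 μM in DMEM, then 1 h with 0.5 mg mL−1 MTT; absorbance at 540 nm relative to peptide-free medium as 100% survival. EC50 from a 3-parameter log-logistic fit.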

[2] = tested on: MCF7 breast adenocarcinoma cell line; assay: Cell viability assay (MTT); format: cell-based, human
How it was run: as §3

Row | Compound | half-effective hemolytic concentration (HC50) against human erythrocytes (in words) (human erythrocytes; Fig. 1d, compared with the EC50 against cancer cell lines, N = 3) | Eryhtr. HC50 /µM (human erythrocytes; Table S2, 5% v/v erythrocytes in PBS added 1:1, peptide 200 to 6.25 µM, 37°C, absorbance 540 nm, 0.1% Triton-X-100 = 100%, mean ± sd, N = 2 independent, three technical replicates) | Log GI (M) (TK-10) | Log GI (M) (KM12) | Log GI (M) (MDA-MB-435) | Log GI (M) (BT-549) | Log GI (M) (SN12C) | Log GI (M) (MCF7) | Log GI (M) (NCI-H23) | EC50 ([1]; 10^4 cells per well, 24 h with peptide, 2-fold dilution series from 100 µM in DMEM, absorbance 540 nm, mean ± std, N = 3, read-out: A549 EC50/µM) | EC50 ([2]; 10^4 cells per well, 24 h with peptide, 2-fold dilution series from 100 µM in DMEM, absorbance 540 nm, mean ± std, N = 3) | Eryhtr. HC50 /µM (human erythrocytes; red cells of human) | EC50 ([1]; Table S2, 24 h, mean ± sd, N = 2 independent measurements with six technical replicates each (Figs S6-S8), read-out: A549 EC50 /µM) | EC50 ([2]; Table S2, 24 h, mean ± sd, N = 2 independent measurements with six technical replicates each (Figs S6-S8))
1 | CC[C@H](C)[C@H](NC(=O)[C@H](CCCNC(=N)N)NC(=O)[C@H](Cc1c[nH]c2ccccc12)NC(=O)[C@@H](NC(=O)[C@H](CCCCN)NC(=O)[C@H](CCCCN)NC(=O)[C@@H](NC(=O)[C@@H](NC(=O)[C@@H](NC(=O)[C@H](CCCCN)NC(=O)[C@H](Cc1ccccc1)NC(=O)[C@H](CCCCN)NC(=O)[C@H](CCCCN)NC(=O)[C@H](Cc1ccccc1)NC(=O)[C@@H](NC(=O)[C@@H](N)CCCCN)[C@@H](C)CC)[C@@H](C)O)[C@@H](C)CC)[C@@H](C)CC)C(C)C)C(=O)N[C@@H](Cc1ccccc1)C(=O)NCC(=O)N[C@@H](CCCNC(=N)N)C(=O)N[C@@H](Cc1ccccc1)C(N)=O [AmphiArc2] (H-KIFKKFKTIIKKVWRIFGRF-NH2) | same low-micromolar range | 16 ± 2 µM | -5.65 M | -5.63 M | -5.63 M | -5.45 M | -5.69 M | -5.52 M | -5.61 M | 9.3 ± 1.5 µM | 5.7 ± 0.7 µM | – | – | –
2 | CC[C@H](C)[C@H](NC(=O)[C@H](CCCCN)NC(=O)[C@H](CCCCN)NC(=O)[C@@H](NC(=O)[C@@H](NC(=O)[C@@H](N)Cc1c[nH]cn1)[C@@H](C)CC)[C@@H](C)CC)C(=O)N[C@@H](CCCNC(=N)N)C(=O)N[C@H](C(=O)N[C@@H](Cc1c[nH]c2ccccc12)C(=O)N[C@@H](Cc1ccc(O)cc1)C(=O)N[C@@H](CCCNC(=N)N)C(=O)N[C@@H](CCCCN)C(=O)N[C@@H](C)C(=O)N[C@@H](Cc1c[nH]c2ccccc12)C(=O)N[C@@H](Cc1c[nH]cn1)C(=O)N[C@H](C(=O)N[C@@H](CC(C)C)C(=O)NCC(=O)N[C@@H](CCCCN)C(=O)N[C@H](C(N)=O)C(C)C)C(C)C)[C@@H](C)O [Off2] (H-HIIKKIRTWYRKAWHVLGKV-NH2) | – | – | -5.49 M | -5.60 M | -5.29 M | -4.89 M | -5.53 M | -5.69 M | -5.31 M | – | – | > 200 µM | 17 ± 0.6 µM | 10 ± 2 µM

— article PMC6677754, “In silico design and optimization of selective membranolytic anticancer peptides” (Scientific Reports, 2019)
